{"source": "patent EP0447812B1", "about": "“Use of a dihydropyridine to improve the inner ear blood circulation” (FUJISAWA PHARMACEUTICAL CO., LTD., priority 1990, dated 1991)", "key": {"Rats": {"tested_on": "Rats", "assay": "Test 2: Rose Bengal/green light photoillumination of the oval window, nystagmus test and swimming test for imbalance 24 hours later", "format": "in vivo", "conditions": "0.03 mg/kg intravenously at the beginning of photoillumination, 12 animals, dosage 0: 100 %", "method": "Rats were anesthetized with pentobarbital, and with the body temperature maintained at 37°C with a heating pad, an aqueous solution of Rose Bengal was continuously infused into the femoral vein. The […] was then opened and the tympanic membrane, incus and malleus were removed taking care not to impair the inner ear.\nUsing a Hamamatsu Photonic xenon lamp, the oval window was irradiated with a green light of 540 nm via an optical fiber. Using a manipulator, the end of the fiber was fixed about 3 mm from the lateral wall of the cochlea.\nPhotoillumination was started 20 minutes after the beginning of Rose Bengal infusion and a solution of the test compound in polyethylene glycol (400)-water (1:1, v/v) was intravenously administered at the beginning of photoillumination. After 40 minutes of irradiation, both the photoillumination and Rose Bengal infusion were terminated, the wound was sutured, and the animal was allowed to regain consciousness. At 24 hours after termination of photoillumination, a nystagmus test and a swimming test for imbalance were performed."}, "Male Wistar rats": {"tested_on": "Male Wistar rats", "assay": "Test 1: Rose Bengal/green light photo-illumination of the cochlear lateral wall, compound action potential (CAP) recorded by electrocochleography", "format": "in vivo", "conditions": "0.3 mg/kg injected intravenously 10 minutes prior to photo-illumination; 6 animals; vehicle only 12.0 min.", "method": "Male Wistar rats (body weights 240 - 260 g) were anesthetized with pentobarbital. After tracheotomy, the animals were artificially ventilated with a Harvard 683 respirator. A solution of Rose Bengal (RB) in saline (10 mg/ml) was infused into the femoral vein at a speed of 24 µmoles/kg per hour. After initiation of Rose Bengal infusion, the left middle ear was opened and, for electrocochleography, the round window lead electrode was fixed in position. Thus, after incision of the skin and muscle of the neck region, the tympanic cavity was drilled with a miniature drill and a silver ball electrode was placed on the round window membrane for use as an active electrode. An indifferent electrode was placed in the middle of the back of the head. Thirty minutes after initiation of Rose Bengal infusion, the lateral wall of the cochlea was irradiated with a green light (540 nm) conducted from a light source (L-3306-01A, Hamamatsu Photonics) through an optical fiber. Using a manipulator, the free end of the optical fiber was fixed about 5 mm away from the lateral wall of the cochlea. In this arrangement, the compound action potential (CAP) was recorded at 1-minute intervals. The electrocochleogram was recorded with Nihon Kohden Neuropack II by averaging 128 clicks of 8 kHz at a sound pressure level of 100 dB. […]"}}}
{"compound": "COC(=O)C1=C(C#N)NC(C)=C(C(=O)OC(C)C)C1c1cccc([N+](=O)[O-])c1", "note": "(stereo not drawn) [dihydropyridine compound A, Isopropyl 6-cyano-5-methoxycarbonyl-2-methyl-4-(3-nitrophenyl)-1,4-dihydropyridine-3-carboxylate]", "values": [{"measurement": "Incidence (%) imbalance", "setting": "Rats; swimming test 24 hours after termination of photoillumination", "result": 58.3, "unit": "%"}, {"measurement": "Incidence (%) Nystagmus", "setting": "Rats; tested 24 hours after termination of photoillumination", "result": 58.3, "unit": "%"}, {"measurement": "Action potential disappearance time", "setting": "Male Wistar rats", "result": 14.5, "unit": "min"}]}
